Converted amounts (≈) assume the structure as drawn. Where two headings read alike, the source gives them in different places.
What was measured:
[1] = tested on: M. suipneumoniae Str. 11; assay: MIC against mycoplasma in vitro; type: cell-based
[2] = tested on: M. suipneumoniae J2206/183^b; assay: MIC against mycoplasma in vitro; type: cell-based
[3] = tested on: M. suipneumoniae LABER; assay: MIC against mycoplasma in vitro; type: cell-based
[4] = tested on: M. hyorhinis ATCC 25021; assay: MIC against mycoplasma in vitro; type: cell-based; details: M. hyorhinis ATCC 25021, 6 days, 37° C.
[5] = tested on: M. hyosynoviae ATCC 25591; assay: MIC against mycoplasma in vitro; type: cell-based; details: M. hyosynoviae ATCC 25591, 6 days, 37° C.
[6] = tested on: M. bovis NCTC 10131; assay: microbe, parasite or virus in culture; type: cell-based
[7] = tested on: M. dispar NCTC 10125; assay: MIC against mycoplasma in vitro; type: cell-based
[8] = tested on: E. coli NCTC 10418; assay: MIC against human bacteria in vitro; type: cell-based
[9] = tested on: P. mirabilis 889; assay: MIC against human bacteria in vitro; type: cell-based
[10] = tested on: K. aerogenes A; assay: MIC against human bacteria in vitro; type: cell-based; details: K. aerogenes A, 5% chocolated horse blood agar, 18 hours
[11] = tested on: Neisseria catarrhalis 1502; assay: MIC against human bacteria in vitro; type: cell-based; details: Neisseria catarrhalis 1502, 5% chocolated horse blood agar, 18 hours
[12] = tested on: Bacillus subtilis 6633; assay: MIC against human bacteria in vitro; type: cell-based; details: Bacillus subtilis 6633, 5% chocolated horse blood agar, 18 hours
[13] = tested on: Corynebacterium xerosis 9755; assay: MIC against human bacteria in vitro; type: cell-based; details: Corynebacterium xerosis 9755, 5% chocolated horse blood agar, 18 hours
[14] = tested on: Staph. aureus Oxford; assay: MIC against human bacteria in vitro; type: cell-based; details: Staph. aureus Oxford, 5% chocolated horse blood agar, 18 hours
[15] = tested on: Strep. faecalis I; assay: MIC against human bacteria in vitro; type: cell-based; details: Strep. faecalis I, 5% chocolated horse blood agar, 18 hours
[16] = tested on: Strep. pyogenes R80/421-A; assay: MIC against human bacteria in vitro; type: cell-based; details: Strep. pyogenes R80/421-A, 5% chocolated horse blood agar, 18 hours
[17] = tested on: Past. multocida PA1; assay: MIC against veterinary bacteria in vitro
Experimental: (§1) The activity of the compounds of the Examples against various veterinarily important bacteria, was assayed in vitro using two-fold serial dilutions in Diagnostic Sensitivity Test Agar inoculated with 10^4 organisms.

[18] = tested on: Past. haemolytica PA5; assay: MIC against veterinary bacteria in vitro
Experimental: as §1

[19] = tested on: Corynebacterium pyogenes CY1; assay: MIC against veterinary bacteria in vitro
Experimental: as §1

[20] = tested on: Staph. aureus B4 (pen. resistant); assay: MIC against veterinary bacteria in vitro
Experimental: as §1

[21] = tested on: Strep. uberis SPU1; assay: MIC against veterinary bacteria in vitro
Experimental: as §1

[22] = tested on: Strep. dysgalactiae SPD1; assay: MIC against veterinary bacteria in vitro
Experimental: as §1

[23] = tested on: M. suipneumoniae PW/C/210; assay: MIC against mycoplasma in vitro; type: cell-based; details: Mesomycoplasma hyopneumoniae, 144 h
[24] = tested on: Haemophilus influenzae Q1; assay: MIC against human bacteria in vitro; type: cell-based; details: Haemophilus influenzae Q1; 5% chocolated horse blood agar, 18 hours; read-out: MIC
[25] = Mesomycoplasma hyopneumoniae, 144 h, M. suipneumoniae J2206/183^b, 6 days, 37° C., read-out: MIC
[26] = Mesomycoplasma hyorhinis, ATCC25021, 144 h, read-out: MIC
[27] = Klebsiella aerogenes, read-out: MIC
[28] = Staphylococcus aureus, read-out: MIC
[29] = Enterococcus faecalis, read-out: MIC
[30] = Pasteurella multocida, PA1, 18 h
[31] = Mannheimia haemolytica, PA5, 18 h
[32] = Streptococcus uberis, SPU1, 18 h
[33] = Streptococcus dysgalactiae, SPD1, 18 h
[34] = Mesomycoplasma hyopneumoniae, STR.11, 144 h
[35] = Mesomycoplasma hyopneumoniae, 144 h
[36] = Escherichia coli, NCTC10418, E. coli NCTC 10418, agar with 5% chocolated horse blood, 18 hours, 37° C., read-out: MIC
[37] = Proteus mirabilis, P. mirabilis 889, 5% chocolated horse blood agar, 18 hours, read-out: MIC
[38] = Streptococcus pyogenes, read-out: MIC

## CC(=Cc1cc(C)no1)CC1OCC(CC2OC2C(C)C(C)O)C(O)C1O (stereo not drawn) [Example 30, 3-Methyl-5-(1-normon-2-yl) isoxazole A]
[1]; M. suipneumoniae Str. 11, 6 days, 37° C.
  MIC: 2.5 µg/mL (≈ 6.55 µM)
[2]; M. suipneumoniae J2206/183^b, 6 days, 37° C.
  MIC: 2.5 µg/mL (≈ 6.55 µM)
[3]; M. suipneumoniae LABER, 6 days, 37° C.
  MIC: 2.5 µg/mL (≈ 6.55 µM)
[4]
  MIC: 0.5 µg/mL (≈ 1.31 µM)
[5]
  MIC: 1.0 µg/mL (≈ 2.62 µM)
[6]; M. bovis NCTC 10131, 6 days, 37° C.
  MIC: 0.25 µg/mL (≈ 0.655 µM)
[7]; M. dispar NCTC 10125, 6 days, 37° C.
  MIC: 0.25 µg/mL (≈ 0.655 µM)
[8]; E. coli NCTC 10418, agar with 5% chocolated horse blood, 18 hours, 37° C.
  MIC: > 128 µg/mL
[9]; P. mirabilis 889, 5% chocolated horse blood agar, 18 hours
  MIC: > 128 µg/mL
[10]
  MIC: > 128 µg/mL
[11]
  MIC: 8.0 µg/mL (≈ 21 µM)
[12]
  MIC: 8.0 µg/mL (≈ 21 µM)
[13]
  MIC: > 128 µg/mL
[14]
  MIC: 8.0 µg/mL (≈ 21 µM)
[15]
  MIC: > 128 µg/mL
[16]
  MIC: 32 µg/mL (≈ 83.9 µM)
[17]; Past. multocida PA1, Diagnostic Sensitivity Test Agar, 18 hours
  MIC: 2.5 µg/mL (≈ 6.55 µM)
[18]; Past. haemolytica PA5, Diagnostic Sensitivity Test Agar, 18 hours
  MIC: 10 µg/mL (≈ 26.2 µM)
[19]; Corynebacterium pyogenes CY1, Diagnostic Sensitivity Test Agar, 18 hours
  MIC: > 80 µg/mL
[20]; Staph. aureus B4 (pen. resistant), Diagnostic Sensitivity Test Agar, 18 hours
  MIC: 1.25 µg/mL (≈ 3.28 µM)
[21]; Strep. uberis SPU1, Diagnostic Sensitivity Test Agar, 18 hours
  MIC: 10 µg/mL (≈ 26.2 µM)
[22]; Strep. dysgalactiae SPD1, Diagnostic Sensitivity Test Agar, 18 hours
  MIC: 40 µg/mL (≈ 105 µM)

## C/C(=C\c1nc(C)c(C)o1)C[C@@H]1OC[C@H](C[C@@H]2O[C@H]2[C@@H](C)[C@H](C)O)[C@@H](O)[C@H]1O [Example 39, 4,5-Dimethyl-2-(1-normon-2-yl)oxazole A]
[1]; Mesomycoplasma hyopneumoniae, 144 h, M. suipneumoniae Str. 11, 6 days, 37° C., read-out: MIC
  MIC: > 10 µg/mL
[2]; [25]
  MIC: > 10 µg/mL
[23]; M. suipneumoniae PW/C/210, 6 days, 37° C., read-out: MIC
  MIC: > 10 µg/mL
[3]; Mesomycoplasma hyopneumoniae, 144 h, M. suipneumoniae LABER, 6 days, 37° C., read-out: MIC
  MIC: > 10 µg/mL
[4]; [26]
  MIC: > 10 µg/mL
[5]; 144 h, read-out: MIC
  MIC: > 10 µg/mL
[6]; NCTC10131, 144 h
  MIC: 5 µg/mL (≈ 12.6 µM)
[7]; 144 h, M. dispar NCTC 10125, 6 days, 37° C., read-out: MIC
  MIC: > 10 µg/mL
[8]; Escherichia coli, NCTC10418, 18 h
  MIC: > 100 µg/mL
[9]; Proteus mirabilis, 889, 18 h
  MIC: > 100 µg/mL
[10]; [27]
  MIC: > 100 µg/mL
[24]
  MIC: 5 µg/mL (≈ 12.6 µM)
[11]; read-out: MIC
  MIC: 25 µg/mL (≈ 63.2 µM)
[12]; read-out: MIC
  MIC: > 100 µg/mL
[13]; read-out: MIC
  MIC: > 100 µg/mL
[14]; [28]
  MIC: 100 µg/mL (≈ 253 µM)
[15]; [29]
  MIC: > 100 µg/mL
[17]; [30]
  MIC: 80 µg/mL (≈ 202 µM)
[18]; [31]
  MIC: 80 µg/mL (≈ 202 µM)
[19]; CY1, 18 h
  MIC: > 80 µg/mL
[20]; Staphylococcus aureus, 18 h
  MIC: > 80 µg/mL
[21]; [32]
  MIC: > 80 µg/mL
[22]; [33]
  MIC: > 80 µg/mL

## C/C(=C\c1ncc(-c2ccc(Br)cc2)o1)C[C@@H]1OC[C@H](C[C@@H]2O[C@H]2[C@@H](C)[C@H](C)O)[C@@H](O)[C@H]1O [Example 18, 5-p-Bromophenyl-2-(1-normon-2-yl) oxazole A]
[1]; [34]
  MIC: 0.25 µg/mL (≈ 0.479 µM)
[2]; [35]
  MIC: 1 µg/mL (≈ 1.91 µM)
[23]
  MIC: 0.25 µg/mL (≈ 0.479 µM)
[3]; [35]
  MIC: 0.25 µg/mL (≈ 0.479 µM)
[4]; [26]
  MIC: 0.5 µg/mL (≈ 0.957 µM)
[5]; 144 h, read-out: MIC
  MIC: 0.5 µg/mL (≈ 0.957 µM)
[6]; NCTC10131, 144 h
  MIC: 0.05 µg/mL (≈ 0.0957 µM)
[7]; 144 h
  MIC: 0.25 µg/mL (≈ 0.479 µM)
[8]; [36]
  MIC: > 128 µg/mL
[9]; [37]
  MIC: > 128 µg/mL
[10]; [27]
  MIC: > 128 µg/mL
[11]; read-out: MIC
  MIC: 4 µg/mL (≈ 7.66 µM)
[12]; read-out: MIC
  MIC: 1 µg/mL (≈ 1.91 µM)
[13]; read-out: MIC
  MIC: > 128 µg/mL
[14]; [28]
  MIC: 2 µg/mL (≈ 3.83 µM)
[15]; [29]
  MIC: > 128 µg/mL
[16]; [38]
  MIC: 2 µg/mL (≈ 3.83 µM)
[17]; [30]
  MIC: 10 µg/mL (≈ 19.1 µM)
[18]; [31]
  MIC: 40 µg/mL (≈ 76.6 µM)
[19]; CY1, 18 h
  MIC: > 80 µg/mL
[20]; Staphylococcus aureus, 18 h
  MIC: 0.156 µg/mL (≈ 0.299 µM)
[21]; [32]
  MIC: < 0.039 µg/mL
[22]; [33]
  MIC: 0.156 µg/mL (≈ 0.299 µM)

## C/C(=C\c1ncc(-c2ccc(C(=O)O)cc2)o1)C[C@@H]1OC[C@H](C[C@@H]2O[C@H]2[C@@H](C)[C@H](C)O)[C@@H](O)[C@H]1O [Example 17, Sodium 4-[2-(1-normon-2-yl)-5-oxazolyl] benzoate A]
[1]; [34]
  MIC: 2.5 µg/mL
[2]; [25]
  MIC: 5 µg/mL
[3]; [35]
  MIC: 2.5 µg/mL
[4]; [26]
  MIC: 5 µg/mL
[5]; 144 h, read-out: MIC
  MIC: > 10 µg/mL
[6]; NCTC10131, 144 h
  MIC: 2.5 µg/mL
[7]; 144 h
  MIC: 2.5 µg/mL
[8]; [36]
  MIC: > 64 µg/mL
[9]; [37]
  MIC: > 64 µg/mL
[10]; [27]
  MIC: > 64 µg/mL
[11]; read-out: MIC
  MIC: 8 µg/mL
[12]; read-out: MIC
  MIC: 32 µg/mL
[13]; read-out: MIC
  MIC: > 64 µg/mL
[14]; [28]
  MIC: 32 µg/mL
[15]; [29]
  MIC: > 64 µg/mL
[16]; [38]
  MIC: 4 µg/mL
[17]; [30]
  MIC: 10 µg/mL
[18]; [31]
  MIC: > 80 µg/mL
[19]; CY1, 18 h
  MIC: > 80 µg/mL
[20]; Staphylococcus aureus, 18 h
  MIC: 10 µg/mL
[21]; [32]
  MIC: 1.25 µg/mL
[22]; [33]
  MIC: 2.5 µg/mL
